Consider one substance from patent US5670479A, “α-ketoamide derivatives as inhibitors of thrombosis” (Corvas International, Inc., priority 1994, dated 1997).

Test [1] addresses thrombin (Homo sapiens, UniProt P00734). Particulars: reported in literature; cited from earlier work.
Test [2] has as its system Male Harlan Sprague Dawley rats. In words: Venous stasis model in rats. It counts as in vivo. To be noted: rat; for % Clot: mean ± S.E.M. As for the experimental part:
This is one of the most commonly used models in the evaluation of antithrombotic compounds. Hladovec, J. Thromb. […] Talbot, M. D., et. al., Thromb.
Male Harlan Sprague Dawley rats (420-450 g) were acclimated at least 72 hours prior to use. The animals were fasted for 12 hours prior to surgery with free access to water. The animals were anesthetized with a sodium pentobarbital (Nembutal) given intraperitoneally at a dose of 50 mg/kg body weight and placed on a isothermal pad to maintain body temperature. The level of anesthesia was monitored every 15 minutes by: neuro-response to a tail pinch, respiration and body core temperature. The desired depth of surgical anesthesia was maintained by administering subsequent doses (5 mg/kg) intravenously. The left femoral artery was catheterized with polyethylene tubing (PE50) using standard procedures for blood pressure monitoring and blood sampling. The left and right femoral veins were catheterized with PE50 tubing for delivery of anesthetic and test compounds respectively.
Blood pressure, heart rate, core temperature and respiration were monitored continuously.
The abdomen of the animals is opened by making a vertical midline incision followed by isolation of the IVC using dissection. The segment extends from below the renal to above the iliac vessels (about 2 cm in length). The peripheral blood vessels are tied off and a ligature is loosely placed at the distal and proximal ends of the isolated segment. Rabbit brain thromboplastin (RBT)(Sigma Chemical Co., St. Louis Mo.) is prepared by resuspending the contents of the vial with 2 mL of sterile saline pre-warmed to 37° C. At the end of the 30 minute infusion period, RBT is systemically administered as a bolus injection (1.5 mL/kg) via the femoral catheter. Stasis is induced within the isolated IVC segment by securing the proximal and distal ligature 10 sec following the administration of the RBT. Following a 30 minute period of stasis the tied off IVC segment is removed and the contents weighed. Clot formation was defined as %clot: [Weight of the isolated clot/(Weight of the intact segment-the weight of the empty segment)] ×100. This method was used to correct for slight differences in segment size and fluid content.
Following termination of the experiment the animal was euthanized with a 120 mg/kg dose of Nembutal.

In test [3] the target is T1, clot-bound a-thrombin (Homo sapiens, UniProt P00734).
T1 construct: from tissue; host or cells: washed clots formed from citrated plasma by adding CaCl2
In words: Inhibition of clot-bound thrombin (FPA generation in citrated plasma). In kind it is biochemical. How it is done:
Plasma clots were formed around wire hooks by the addition of CaCl2 (final concentration, 25 mM) to 500 μl aliquots of citrated plasma. After aging the clots for 60 minutes at 37° C. with constant agitation, the clots were washed 10 times with 2 ml aliquots of 0.1M NaCl buffered with 0.05M Tris-HCL, pH 7.4 over an 18 hour period. The washed clots were then incubated in 1 ml aliquots of citrated plasma for 60 minutes at 37° C. in the absence or presence of the various inhibitors. At timed intervals, 100 μl aliquots were removed and the reaction was terminated by the addition of the irreversible serine protease inhibitor, D-phenylalanyl-prolinyl-argininyl-CH2 Cl.
Unreacted fibrinogen was precipitated with ethanol, and the ethanol supernatants were then assayed for FPA.

Test [4] deals with washed human platelets. In words: Thrombin-induced aggregation in washed human platelets. In kind it is cell-based. As for the experimental part:
Washed human platelets were prepared from freshly isolated venous blood obtained from normal, healthy volunteers who had not taken any medication which might affect platelet function, according to the procedure of Connolly, T. M. et al., J. Biol. Chem., 267: 6893. (1992). Inhibitors, were added in a volume of […] to […] of prewarmed washed platelets in a siliconized glass cuvette (Chronolog Corp., Hayertown, Pa.) followed by […] of 0.25M CaCl2. The rate and extent of aggregation were measured for 5-15 minutes by the change in light transmission in a stirred cuvette, following the addition of […] of a-thrombin (final concentration 2 nM), using a Chronolog Whole Blood Aggregometer equipped with the Aggro/Link data acquisition system (Chronolog Corp., Hayertown, Pa.).

For test [5], the target named is a-thrombin (Homo sapiens, UniProt P00734). The experiment in a line: Thrombin-induced clotting of purified fibrinogen. In kind it is biochemical. To be noted: preincubation with a-thrombin 0, 30, 60 minutes before fibrinogen. How it is done:
The clotting time of fibrinogen following the addition of the thrombin/inhibitor complex was measured optically using the Coag-A-Mate XC automated coagulometer (General Diagnostics, Organon Technica, Oklahoma City, Okla.).
This inhibition is reflected as an increase in the relative clotting time which is the ratio of the […]. The control clotting time in this assay is 16.2±0.78 sec.

The Ki is a measure of affinity in units of concentration, obtained from inhibition or displacement. A word on the IC50: it is the concentration needed to halve the response being measured. Turning to “(D-Phe)-Pro-Arg-Pro-(Gly)4 -Asn-Gly-Asp-Phe-Glu-Glu-Ile-Pro-Glu-Glu-Tyr-Leu-OH [Hirulog-1]”, in test [1], the Ki was 2.56 nM. Moreover, the “% Clot” value came to 25.75 ± 3.71% in test [2] (0.1 mg/kg i.v. bolus + 40 mg/kg/min i.v. infusion), 26.50 ± 3.59% in test [2] (0.1 mg/kg i.v. bolus + 60 mg/kg/min i.v. infusion) and 25.75 ± 0.41% in test [2] (0.1 mg/kg i.v. bolus + 80 mg/kg/min i.v. infusion). Further, the “effect on venous thrombus formation induced by stasis and thromboplastin” value in test [2] (summary in words) is “did not have any effect”. Further, the “inhibition of clot-bound a-thrombin-mediated FPA generation” value in test [3] (citrated human plasma, 60 min, 37° C., compound 8 18.75 nM, Hirulog-1 500 nM, rHIR 4 nM, FIG. 5B) is recorded as “only transiently inhibited FPA generation”. In addition, in test [3] (percent inhibition of FPA generation at 60 min, FIG. 6), the “inhibition of clot-bound versus fluid-phase thrombin at 60 minutes incubation” value is “less inhibitory activity against clot-bound thrombin”. The “persistence of inhibition of aggregation over the 15 minute assay” value in test [4] (20 nM (compound 8), same or higher concentrations (Hirulog-1), FIG. 4) is given as “did not cause sustained inhibition”. The substance further had an IC50 in test [4] (a-thrombin 2 nM, extent of aggregation over 1 minute, mean ± SD of three) of 16 ± 3 nM. In addition, in test [5], the “proteolytic inactivation by thrombin on preincubation” value was “sensitive to proteolytic degradation”.
